For orientation: IC50 means the concentration needed to halve the response being measured. As a reminder, the inhibition is the relative decrease from the control value, in per cent.

Results on 10 compounds are retold here after ChEMBL document CHEMBL4622865, “Sulfonamide-based 4-anilinoquinoline derivatives as novel dual Aurora kinase (AURKA/B) inhibitors: Synthesis, biological evaluation and in silico insights” (Bioorg Med Chem, 2020).

SMILES strings stand for the structures. Some results are limits rather than exact numbers.

One assay concerns KM12. As to the kind of experiment: Antitumor activity against human KM12 cells assessed as growth inhibition at 10-'5 M incubated for 48 hrs by SRB assay relative to control. In kind it is functional. In general terms: Sulforhodamine B stains cellular protein and so reports cell mass.
In another assay the test system is EKVX. Briefly: Antitumor activity against human EKVX cells assessed as growth inhibition at 10-'5 M incubated for 48 hrs by SRB assay relative to control. In kind it is functional.
The species named for a further assay is Homo sapiens. Briefly: Selectivity ratio of IC50 for inhibition of human AURKB to IC50 for inhibition of human AURKA.
Assay [1] concerns the target T1, Aurora kinase B (Homo sapiens, UniProt Q96GD4). Briefly: Inhibition of human Aurora B using [H-LRRASLG] as substrate in presence of [gamma-33P]-ATP incubated for 2 hrs by hotspot kinase assay.
In assay [2] the target is T2, Aurora kinase A (Homo sapiens) (UniProt O14965).
T2 sequence (whole entry): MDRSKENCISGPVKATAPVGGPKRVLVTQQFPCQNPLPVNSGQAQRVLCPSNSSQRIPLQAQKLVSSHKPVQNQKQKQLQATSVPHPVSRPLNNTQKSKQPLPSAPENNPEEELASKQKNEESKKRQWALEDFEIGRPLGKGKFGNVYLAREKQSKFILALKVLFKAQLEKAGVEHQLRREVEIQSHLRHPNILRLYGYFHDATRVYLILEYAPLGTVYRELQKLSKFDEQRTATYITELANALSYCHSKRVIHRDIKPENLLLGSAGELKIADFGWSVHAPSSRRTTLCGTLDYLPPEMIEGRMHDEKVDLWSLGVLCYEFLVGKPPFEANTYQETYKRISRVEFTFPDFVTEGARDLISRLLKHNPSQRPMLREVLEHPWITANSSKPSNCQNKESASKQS
Briefly: Inhibition of human Aurora A using [H-LRRASLG] as substrate at 20 uM in presence of [gamma-33P]-ATP incubated for 2 hrs by hotspot kinase assay relative to control.

For a further assay, the target named is T3, Aurora kinase A (Homo sapiens, UniProt O14965).
T3 sequence (O14965 whole entry): T2 sequence (whole entry)
Briefly: Inhibition of human Aurora A using [H-LRRASLG] as substrate in presence of [gamma-33P]-ATP incubated for 2 hrs by hotspot kinase assay.

For assay [3], the target named is T1, Aurora kinase B. As to the kind of experiment: Inhibition of human Aurora B using [H-LRRASLG] as substrate at 20 uM in presence of [gamma-33P]-ATP incubated for 2 hrs by hotspot kinase assay relative to control.
A further assay relates to SNB-75. As to the kind of experiment: Antitumor activity against human SNB75 cells assessed as growth inhibition at 10-'5 M incubated for 48 hrs by SRB assay relative to control. In kind it is functional.
The test system of a further assay is CAKI-1. Briefly: Antitumor activity against human CAKI-1 cells assessed as growth inhibition at 10-'5 M incubated for 48 hrs by SRB assay relative to control. In kind it is functional.
The test system of the next assay is A498. Briefly: Antitumor activity against human A498 cells assessed as growth inhibition at 10-'5 M incubated for 48 hrs by SRB assay relative to control. The assay is classed as functional.
The test system of another assay is HCT-116. Briefly: Antitumor activity against human HCT116 cells assessed as growth inhibition at 10-'5 M incubated for 48 hrs by SRB assay relative to control. The assay is classed as functional.
In a further assay the test system is BT-549. Briefly: Antitumor activity against human BT549 cells assessed as growth inhibition at 10-'5 M incubated for 48 hrs by SRB assay relative to control. In kind it is functional.
The next assay relates to UO-31. Briefly: Antitumor activity against human UO31 cells assessed as growth inhibition at 10-'5 M incubated for 48 hrs by SRB assay relative to control. In kind it is functional.
Assay [4] addresses Dual specificity testis-specific protein kinase 1 (Homo sapiens) (UniProt Q15569). Briefly: Inhibition of human TESK1 using cofilin as substrate at 20 uM in presence of [gamma-33P]-ATP incubated for 2 hrs by hotspot kinase assay relative to control.
Assay [5] has as its target Proto-oncogene tyrosine-protein kinase ROS (Homo sapiens) (UniProt P08922). As to the kind of experiment: Inhibition of human ROS/ROS1 using KKKSPGEYVNIEFG as substrate at 20 uM in presence of [gamma-33P]-ATP incubated for 2 hrs by hotspot kinase assay relative to control.
The next assay relates to 786-0. As to the kind of experiment: Antitumor activity against human 786-O cells assessed as growth inhibition at 10-'5 M incubated for 48 hrs by SRB assay relative to control. The assay is classed as functional.
A further assay concerns M14. As to the kind of experiment: Antitumor activity against human M14 cells assessed as growth inhibition at 10-'5 M incubated for 48 hrs by SRB assay relative to control. The assay is classed as functional.
The target of assay [6] is MAP kinase-activated protein kinase 3 (Homo sapiens) (UniProt Q16644). Briefly: Inhibition of human MAPKAPK3 using KKLNRTLSVA as substrate at 20 uM in presence of [gamma-33P]-ATP incubated for 2 hrs by hotspot kinase assay relative to control.
The target in assay [7] is Calcium/calmodulin-dependent protein kinase kinase 2 (Homo sapiens) (UniProt Q96RR4). Briefly: Inhibition of human CAMKK2 using MBP as substrate at 20 uM in presence of [gamma-33P]-ATP incubated for 2 hrs by hotspot kinase assay relative to control.
Assay [8] addresses Serine/threonine-protein kinase VRK2 (Homo sapiens) (UniProt Q86Y07). Briefly: Inhibition of human VRK2 using casein as substrate at 20 uM in presence of [gamma-33P]-ATP incubated for 2 hrs by hotspot kinase assay relative to control.
The test system of the next assay is IGROV-1. As to the kind of experiment: Antitumor activity against human IGROV1 cells assessed as growth inhibition at 10-'5 M incubated for 48 hrs by SRB assay relative to control. The assay is classed as functional.
The next assay relates to T47D. Briefly: Antitumor activity against human T47D cells assessed as growth inhibition at 10-'5 M incubated for 48 hrs by SRB assay relative to control. The assay is classed as functional.
A further assay concerns SK-MEL-5. As to the kind of experiment: Antitumor activity against human SK-MEL-5 cells assessed as growth inhibition at 10-'5 M incubated for 48 hrs by SRB assay relative to control. In kind it is functional.
Another assay has as its system MOLT-4. Briefly: Antitumor activity against human MOLT4 cells assessed as growth inhibition at 10-'5 M incubated for 48 hrs by SRB assay relative to control. The assay is classed as functional.
The test system of a further assay is Hs-578T. As to the kind of experiment: Antitumor activity against human Hs 578T cells assessed as growth inhibition at 10-'5 M incubated for 48 hrs by SRB assay relative to control. In kind it is functional.
In another assay the test system is MDA-MB-231. As to the kind of experiment: Antitumor activity against human MDA-MB-231 cells assessed as growth inhibition at 10-'5 M incubated for 48 hrs by SRB assay relative to control. The assay is classed as functional.
A further assay relates to HOP-62. As to the kind of experiment: Antitumor activity against human HOP62 cells assessed as growth inhibition at 10-'5 M incubated for 48 hrs by SRB assay relative to control. The assay is classed as functional.
The test system of another assay is MCF7. Briefly: Antitumor activity against human MCF7 cells assessed as growth inhibition at 10-'5 M incubated for 48 hrs by SRB assay relative to control. In kind it is functional.
The subject of a further assay is UACC-62. As to the kind of experiment: Antitumor activity against human UACC62 cells assessed as growth inhibition at 10-'5 M incubated for 48 hrs by SRB assay relative to control. The assay is classed as functional.
A further assay concerns HCT-15. Briefly: Antitumor activity against human HCT15 cells assessed as growth inhibition at 10-'5 M incubated for 48 hrs by SRB assay relative to control. The assay is classed as functional.
The next assay relates to NCI/ADR-RES. As to the kind of experiment: Antitumor activity against human NCI-ADR-RES cells assessed as growth inhibition at 10-'5 M incubated for 48 hrs by SRB assay relative to control. In kind it is functional.
The test system of the next assay is NCI-H522. As to the kind of experiment: Antitumor activity against human NCI-H522 cells assessed as growth inhibition at 10-'5 M incubated for 48 hrs by SRB assay relative to control. The assay is classed as functional.

T1 sequence (Q96GD4 whole entry): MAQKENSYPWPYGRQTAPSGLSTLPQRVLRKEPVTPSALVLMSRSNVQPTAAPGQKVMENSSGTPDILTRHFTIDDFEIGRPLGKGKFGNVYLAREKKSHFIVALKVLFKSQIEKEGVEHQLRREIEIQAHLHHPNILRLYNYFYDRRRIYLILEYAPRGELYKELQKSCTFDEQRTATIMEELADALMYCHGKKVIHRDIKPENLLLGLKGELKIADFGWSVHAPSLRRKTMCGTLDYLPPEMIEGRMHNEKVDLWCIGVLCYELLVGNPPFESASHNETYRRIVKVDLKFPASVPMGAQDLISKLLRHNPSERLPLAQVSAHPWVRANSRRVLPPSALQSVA
Chain of Calcium/calmodulin-dependent protein kinase kinase 2 (Homo sapiens) (Q96RR4 2-588 limits assumed): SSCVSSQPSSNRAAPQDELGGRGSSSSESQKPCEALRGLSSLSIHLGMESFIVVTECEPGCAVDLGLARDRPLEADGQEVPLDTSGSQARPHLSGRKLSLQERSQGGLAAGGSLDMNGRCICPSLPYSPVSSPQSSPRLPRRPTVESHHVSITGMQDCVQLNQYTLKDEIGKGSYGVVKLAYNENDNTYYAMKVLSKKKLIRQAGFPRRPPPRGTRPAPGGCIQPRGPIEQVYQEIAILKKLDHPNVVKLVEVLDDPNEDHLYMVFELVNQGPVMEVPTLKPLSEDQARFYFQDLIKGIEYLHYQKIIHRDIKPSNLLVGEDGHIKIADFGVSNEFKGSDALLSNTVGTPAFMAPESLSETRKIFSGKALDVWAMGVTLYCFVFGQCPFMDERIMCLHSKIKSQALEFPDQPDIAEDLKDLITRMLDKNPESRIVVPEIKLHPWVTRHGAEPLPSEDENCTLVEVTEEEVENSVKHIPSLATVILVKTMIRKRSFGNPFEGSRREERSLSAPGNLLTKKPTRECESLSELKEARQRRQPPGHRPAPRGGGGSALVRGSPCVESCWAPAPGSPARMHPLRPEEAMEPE
Chain of MAP kinase-activated protein kinase 3 (Homo sapiens) (Q16644 whole entry, looked up): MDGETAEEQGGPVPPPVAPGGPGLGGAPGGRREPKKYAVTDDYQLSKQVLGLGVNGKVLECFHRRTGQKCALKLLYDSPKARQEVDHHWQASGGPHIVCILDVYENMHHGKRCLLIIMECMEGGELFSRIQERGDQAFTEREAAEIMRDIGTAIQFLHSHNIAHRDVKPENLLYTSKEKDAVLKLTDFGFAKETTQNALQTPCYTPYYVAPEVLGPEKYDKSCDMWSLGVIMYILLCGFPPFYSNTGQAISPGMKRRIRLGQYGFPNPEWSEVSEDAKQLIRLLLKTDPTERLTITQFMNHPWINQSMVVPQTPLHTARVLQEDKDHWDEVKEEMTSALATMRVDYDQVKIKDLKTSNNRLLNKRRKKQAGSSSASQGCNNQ
Chain of Dual specificity testis-specific protein kinase 1 (Homo sapiens) (Q15569 whole entry, looked up): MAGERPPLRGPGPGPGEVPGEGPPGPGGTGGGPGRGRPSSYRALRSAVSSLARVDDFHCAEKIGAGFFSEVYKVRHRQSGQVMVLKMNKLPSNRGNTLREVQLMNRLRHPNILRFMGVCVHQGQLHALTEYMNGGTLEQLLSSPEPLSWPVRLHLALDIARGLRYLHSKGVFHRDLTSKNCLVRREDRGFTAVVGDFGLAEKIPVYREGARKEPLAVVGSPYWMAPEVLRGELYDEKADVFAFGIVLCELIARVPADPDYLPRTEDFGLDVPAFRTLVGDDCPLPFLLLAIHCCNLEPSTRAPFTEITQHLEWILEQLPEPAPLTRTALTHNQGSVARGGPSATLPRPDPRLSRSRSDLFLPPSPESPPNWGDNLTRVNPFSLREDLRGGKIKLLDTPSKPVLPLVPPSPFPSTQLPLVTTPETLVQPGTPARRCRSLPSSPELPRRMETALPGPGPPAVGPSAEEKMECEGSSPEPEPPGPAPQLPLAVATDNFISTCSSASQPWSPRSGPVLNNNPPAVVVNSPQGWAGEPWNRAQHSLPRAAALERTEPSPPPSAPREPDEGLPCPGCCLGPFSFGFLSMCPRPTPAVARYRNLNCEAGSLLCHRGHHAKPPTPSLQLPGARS
Chain of Proto-oncogene tyrosine-protein kinase ROS (Homo sapiens) (P08922 whole entry): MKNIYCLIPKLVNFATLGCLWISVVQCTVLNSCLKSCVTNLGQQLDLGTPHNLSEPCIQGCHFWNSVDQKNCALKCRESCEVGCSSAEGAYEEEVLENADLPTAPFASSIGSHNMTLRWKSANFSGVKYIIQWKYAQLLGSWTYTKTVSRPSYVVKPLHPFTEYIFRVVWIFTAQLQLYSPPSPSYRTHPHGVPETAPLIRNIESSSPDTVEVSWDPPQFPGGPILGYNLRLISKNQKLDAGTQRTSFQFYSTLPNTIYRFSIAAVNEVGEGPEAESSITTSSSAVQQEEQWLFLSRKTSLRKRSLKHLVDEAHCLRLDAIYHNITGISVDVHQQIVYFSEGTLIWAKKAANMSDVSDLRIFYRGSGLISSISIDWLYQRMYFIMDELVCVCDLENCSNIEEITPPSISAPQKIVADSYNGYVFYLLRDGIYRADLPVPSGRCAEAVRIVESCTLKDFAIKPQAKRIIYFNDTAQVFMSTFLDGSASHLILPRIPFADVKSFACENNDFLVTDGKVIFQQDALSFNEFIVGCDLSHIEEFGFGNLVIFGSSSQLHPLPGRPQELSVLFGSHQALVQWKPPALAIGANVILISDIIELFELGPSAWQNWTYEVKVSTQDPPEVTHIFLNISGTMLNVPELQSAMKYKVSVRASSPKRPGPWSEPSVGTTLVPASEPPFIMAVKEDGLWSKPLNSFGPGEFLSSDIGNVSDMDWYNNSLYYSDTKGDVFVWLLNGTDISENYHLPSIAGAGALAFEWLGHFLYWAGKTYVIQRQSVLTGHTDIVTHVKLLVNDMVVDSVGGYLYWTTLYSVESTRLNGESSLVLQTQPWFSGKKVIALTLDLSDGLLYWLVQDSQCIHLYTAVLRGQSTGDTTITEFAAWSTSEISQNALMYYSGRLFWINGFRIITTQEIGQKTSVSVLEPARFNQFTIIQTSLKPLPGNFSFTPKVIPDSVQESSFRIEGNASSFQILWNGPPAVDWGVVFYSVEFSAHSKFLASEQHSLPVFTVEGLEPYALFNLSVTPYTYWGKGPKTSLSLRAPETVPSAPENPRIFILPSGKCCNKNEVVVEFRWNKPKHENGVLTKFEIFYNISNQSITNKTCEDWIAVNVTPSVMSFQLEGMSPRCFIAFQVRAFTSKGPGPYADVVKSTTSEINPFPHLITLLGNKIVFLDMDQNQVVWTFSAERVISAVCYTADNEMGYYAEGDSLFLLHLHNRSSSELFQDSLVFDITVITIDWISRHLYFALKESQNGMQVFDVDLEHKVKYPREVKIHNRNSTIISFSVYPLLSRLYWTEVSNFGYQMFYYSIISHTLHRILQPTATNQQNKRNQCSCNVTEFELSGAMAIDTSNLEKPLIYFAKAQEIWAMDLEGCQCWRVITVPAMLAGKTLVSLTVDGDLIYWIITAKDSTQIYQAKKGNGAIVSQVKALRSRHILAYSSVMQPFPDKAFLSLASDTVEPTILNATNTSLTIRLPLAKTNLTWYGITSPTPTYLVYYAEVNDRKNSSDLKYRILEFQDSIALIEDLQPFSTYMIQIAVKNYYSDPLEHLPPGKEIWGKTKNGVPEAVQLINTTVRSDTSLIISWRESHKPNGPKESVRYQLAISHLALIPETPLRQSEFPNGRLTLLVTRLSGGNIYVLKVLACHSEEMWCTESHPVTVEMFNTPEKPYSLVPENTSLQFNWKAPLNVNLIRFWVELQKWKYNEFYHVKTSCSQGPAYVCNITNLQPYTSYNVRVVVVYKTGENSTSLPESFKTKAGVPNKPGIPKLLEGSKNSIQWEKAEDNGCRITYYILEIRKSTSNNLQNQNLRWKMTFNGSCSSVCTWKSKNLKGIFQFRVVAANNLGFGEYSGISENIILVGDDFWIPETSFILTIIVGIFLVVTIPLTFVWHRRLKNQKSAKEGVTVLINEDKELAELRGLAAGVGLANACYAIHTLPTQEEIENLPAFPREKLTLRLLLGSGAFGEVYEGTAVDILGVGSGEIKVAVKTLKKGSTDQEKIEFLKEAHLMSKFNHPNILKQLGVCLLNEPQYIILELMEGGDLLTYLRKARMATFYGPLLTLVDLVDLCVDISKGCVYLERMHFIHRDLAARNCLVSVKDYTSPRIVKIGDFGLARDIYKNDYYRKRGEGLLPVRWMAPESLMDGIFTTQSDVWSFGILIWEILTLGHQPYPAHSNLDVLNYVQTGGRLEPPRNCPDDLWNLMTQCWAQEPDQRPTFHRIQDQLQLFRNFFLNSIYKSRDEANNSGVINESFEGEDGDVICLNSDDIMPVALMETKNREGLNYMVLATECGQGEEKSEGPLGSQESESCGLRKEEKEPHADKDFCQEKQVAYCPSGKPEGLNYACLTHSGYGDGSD
Chain of Serine/threonine-protein kinase VRK2 (Homo sapiens) (Q86Y07 whole entry): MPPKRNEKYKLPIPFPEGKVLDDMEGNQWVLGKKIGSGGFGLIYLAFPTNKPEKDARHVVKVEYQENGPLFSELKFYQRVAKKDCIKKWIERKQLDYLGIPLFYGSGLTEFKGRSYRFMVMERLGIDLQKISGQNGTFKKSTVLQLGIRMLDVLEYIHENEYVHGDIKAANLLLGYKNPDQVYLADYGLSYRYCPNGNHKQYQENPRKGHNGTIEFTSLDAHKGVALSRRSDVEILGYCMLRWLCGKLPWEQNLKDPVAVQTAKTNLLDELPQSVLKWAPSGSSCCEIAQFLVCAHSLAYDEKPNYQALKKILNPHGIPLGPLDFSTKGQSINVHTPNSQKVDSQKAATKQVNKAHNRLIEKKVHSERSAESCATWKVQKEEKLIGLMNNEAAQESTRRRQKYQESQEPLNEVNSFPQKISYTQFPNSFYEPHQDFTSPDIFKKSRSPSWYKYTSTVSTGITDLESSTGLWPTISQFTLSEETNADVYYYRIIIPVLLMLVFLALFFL

`CCOC(=O)c1cnc2ccc(C)cc2c1Nc1cccc(NS(C)(=O)=O)c1`: the “growth inhibition (GI)” value was greater than 50% with KM12 and “>=20%” in the assay on EKVX. Besides, in the assay filed under Homo sapiens, the Ratio IC50 is 3. Besides, the IC50 at Aurora kinase B [1] was found to be 2.99 µM; at Aurora kinase A, 0.98 µM. The inhibition is 64.4% in [2] and 81% on Aurora kinase B [3].
On to `CCOC(=O)c1cnc2ccc(Br)cc2c1Nc1cccc(S(N)(=O)=O)c1`, for which, at Aurora kinase B [1], the IC50 is 1.62 µM. Further, the “growth inhibition (GI)” value in the assay with SNB-75, in the assay with CAKI-1 and in the assay on A498 was “>=20%” throughout. The figures for the inhibition (in assay [2]; at Aurora kinase B [3]) were 26.9% and 87.4%, respectively.
As for `CCOC(=O)c1cnc2ccc(C)cc2c1Nc1cccc(S(N)(=O)=O)c1`, the “growth inhibition (GI)” value is greater than 50% with HCT-116 and “>=20%” in the assay with BT-549. The IC50 at Aurora kinase B [1] was 8.33 µM. The results for the inhibition (in assay [2]; at Aurora kinase B [3]) were 14.9% and 57.7%, respectively.
`CCOC(=O)c1cnc2ccccc2c1Nc1cccc(S(N)(=O)=O)c1`: the IC50 at Aurora kinase B [1] came to 12.5 µM; at Aurora kinase A, 16.6 µM. Also, the “growth inhibition (GI)” value in the assay with SNB-75, with CAKI-1 and with UO-31 was “>=20%” throughout. Further, the inhibition in assay [2] stood at 64.3%; at Aurora kinase B [3], 60.9%.
`CCOC(=O)c1cnc2cc(Cl)cc(Cl)c2c1Nc1cccc(S(N)(=O)=O)c1`: the “growth inhibition (GI)” value with HCT-116 is listed as greater than 50%; in the assay with 786-0, greater than 50%; in the assay with M14, “>=20%”; with A498, “>=20%”. Also, the inhibition came out at 4.01% in [4]; 20.1% in [5]; 61.3% in assay [2]; 3.1% in assay [6]; 33.7% in assay [7]; 31.8% in assay [8]. Also, the inhibition on Aurora kinase B [3] turned out to be 71.8%. For the same compound, the IC50 at Aurora kinase B [1] is 6.89 µM; on Aurora kinase A, 7.64 µM.
On to `CCOC(=O)c1cnc2ccc(Br)cc2c1Nc1cccc(NS(C)(=O)=O)c1`, for which the IC50 on Aurora kinase B [1] was found to be 1.35 µM; on Aurora kinase A it was 1.77 µM. Moreover, the inhibition in assay [2] is 66%; on Aurora kinase B [3], 91.6%. The “growth inhibition (GI)” value in the assay with A498 and in the assay on UO-31 was “>=20%” each time.
For the compound `CCOC(=O)c1cnc2ccccc2c1Nc1cccc(S(=O)(=O)NC)c1`, the “growth inhibition (GI)” value with IGROV-1, with T47D, in the assay with KM12, in the assay on SK-MEL-5, with SNB-75 and in the assay on CAKI-1 was “>=20%” each time. The “growth inhibition (GI)” value in the assay on MOLT-4, in the assay with Hs-578T, in the assay with MDA-MB-231, with A498, with HOP-62 and in the assay with UO-31 was “>=20%” each time. Moreover, the “growth inhibition (GI)” value in the assay on MCF7 and with UACC-62 was “>=20%” each time. In addition, the inhibition in assay [2] was found to be 6.15%; at Aurora kinase B [3], 33.7%.
Consider `CCOC(=O)c1cnc2ccc(Br)cc2c1Nc1cccc(S(=O)(=O)NC)c1`, for which the “growth inhibition (GI)” value in the assay on HCT-15, in the assay with NCI/ADR-RES, in the assay with A498, in the assay with NCI-H522 and with UO-31 was “>=20%” throughout. The inhibition in assay [2] worked out at 10.7%; at Aurora kinase B [3] it was 21.4%.
As to `CCOC(=O)c1cnc2ccccc2c1Nc1cccc(NS(C)(=O)=O)c1`, the figures for the “growth inhibition (GI)” value with HCT-116, in the assay with 786-0 and in the assay with M14 were greater than 50%, “>=20%” and greater than 50%, respectively. Also, the IC50 at Aurora kinase B [1] was determined as 13.2 µM; on Aurora kinase A, 13.4 µM. Moreover, the inhibition in [2] stood at 71.9%; at Aurora kinase B [3], 56.6%.
`CCOC(=O)c1cnc2ccc(C)cc2c1Nc1cccc(S(=O)(=O)NC)c1`: the inhibition in assay [2] came to 6.43%; at Aurora kinase B [3], 18.7%.
